This note sets out measurements from the Kinase Knowledgebase extract (Sharma et al. 2016).

In assay [1] the test system is MAPK14 (mouse). The experiment in a line: Assessment of MAPK14 Kinase Activity in RAW 264.7 Cells.
Assay [2] addresses MAPK14 (human) (UniProt Q16539). The assay can be described thus: Inhibition of MAPK14 Kinase Activity.

Chain of MAPK14 (human) (Q16539 whole entry, looked up): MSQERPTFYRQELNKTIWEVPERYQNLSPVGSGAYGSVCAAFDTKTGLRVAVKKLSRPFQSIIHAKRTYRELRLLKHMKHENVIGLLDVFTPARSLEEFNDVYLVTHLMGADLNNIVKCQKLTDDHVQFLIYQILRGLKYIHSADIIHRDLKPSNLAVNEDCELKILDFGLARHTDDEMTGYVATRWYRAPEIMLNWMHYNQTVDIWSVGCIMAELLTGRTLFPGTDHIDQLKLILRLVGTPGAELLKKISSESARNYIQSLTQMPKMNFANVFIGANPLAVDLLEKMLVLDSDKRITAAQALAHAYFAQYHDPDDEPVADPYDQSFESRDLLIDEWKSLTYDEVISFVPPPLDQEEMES

Broadly, the IC50 is the concentration needed to halve the response being measured. Lower therefore signals inhibition by little substance. For the compound `CC(C)Cn1c(N)nc2ccc(-c3[nH]c(-c4c(Cl)cccc4Cl)nc3-c3ccc(F)cc3F)nc21`, the IC50 in assay [1] amounted to 0.0312 µM.

On to `CC(C)(C)Cn1c(N)nc2ccc(-c3[nH]c(C(C)(C)C)nc3-c3ccc(F)cc3)nc21`, for which the IC50 in assay [2] worked out at 0.007 µM; in assay [1], 0.0343 µM.

In the case of `CC(C)Cn1c(N)nc2ccc(-c3[nH]c(C(C)(C)C)nc3-c3ccc(F)cc3F)nc21`, the IC50 in assay [1] was 0.0418 µM.

For `CC(C)(C)Cn1c(N)nc2ccc(-c3[nH]c(C(C)(C)C)nc3-c3ccc(F)cc3F)nc21`, in assay [1], the IC50 came to 0.0207 µM.

As to `CC(C)(C)Cn1c(N)nc2ccc(-c3[nH]c(-c4c(F)cccc4F)nc3-c3ccc(F)cc3)nc21`, in assay [2], the IC50 came to 0.0072 µM.

In the case of `CC(C)Cn1c(N)nc2ccc(-c3[nH]c(C(C)(C)C)nc3-c3ccccc3)nc21`, the IC50 in assay [2] was found to be 0.0051 µM; in assay [1] it was 0.0664 µM.

As for `CC(C)(C)Cn1c(N)nc2ccc(-c3[nH]c(-c4c(Cl)cccc4Cl)nc3-c3ccc(F)cc3)nc21`, the IC50 in assay [2] was determined as 0.0036 µM; in assay [1], 0.023 µM.

In assay [1], `CC(C)(C)Cn1c(N)nc2ccc(-c3[nH]c(-c4c(F)cccc4Cl)nc3-c3ccccc3)nc21` displayed an IC50 of 0.039 µM.

Turning to `CC(C)Cn1c(N)nc2ccc(-c3[nH]c(-c4c(Cl)cccc4Cl)nc3-c3ccccc3)nc21`, the values for the IC50 in assay [2] and in assay [1] were 0.0037 µM and 0.0647 µM, respectively.
